Legend:
[1] = system: HeLa CD4/CCR5-LTR/β-gal cells; assay: Cytotoxicity by MTT method (MAGI cells); type: cell-based; settings: MTT, mean of triplicate ± SD
Description: (§1) Briefly, target cells (HeLa CD4/CCR5-LTR/β-gal; 10^4/well) were plated in 96-well flat microtiter culture plates. […] The test drugs were added initially and viruses were immediately inoculated onto the cells. Forty-eight hours after viral exposure, all blue cells in each well were counted. The cytotoxicity of the compound was determined by the MTT method as previously described. All experiments were performed in triplicate and AZT was used as reference anti-HIV-1 molecule.

[2] = system: HIV-1 92HT599 (B-X4); assay: PBMC antiviral assay (RT activity), HIV-1 92HT599; type: cell-based; settings: PHA-P-activated PBMCs, 125 TCID50, day 7, RT activity
Description: (§2) In order to confirm antiretroviral activity of the compounds, using a cell model closer to the pathophysiology, Peripheral Blood Mononuclear Cells (PBMCs) were separated from a buffy-coat from healthy HIV-, HCV-, HBV-seronegative blood donors by Ficoll-Hypaque density gradient centrifugation. The PBMCs were activated by incubation with 1 μg/ml phytohemagglutinin-P (PHA-P; Difco Laboratories) for three days in RPMI 1640 medium supplemented with 10% heat-inactivated fetal calf serum (FCS, +56 ◦C for 45 min), 2mM l-glutamine and a 1% antibiotic cocktail (penicillin, streptomycin, neomycin). After this mitogen activation, PBMCs were cultivated in the same culture medium supplemented with recombinant human interleukin-2 (rHuIL-2; 20 IU/mL) and treated and/or infected. […] All these viruses were amplified in vitro with PHA-P-activated blood mononuclear cells and 50% tissue culture infectious doses (TCID50) were calculated using Kärber’s formula [37], after limited-dilution titration. […] Viral replication was measured by quantifying reverse transcriptase (RT) activity in the cell culture supernatants using the Lenti RT Activity Kit (Cavidi) and AZT was used as reference anti-HIV-1 molecule. EC50 were then calculated and expressed in μM.

[3] = system: HIV-1 96USHIPS4 (B-X4/R5); assay: PBMC antiviral assay (RT activity), HIV-1 96USHIPS4; type: cell-based; settings: PHA-P-activated PBMCs, 125 TCID50, day 7, RT activity
Description: as §2

[4] = system: HIV-1 98IN017 (C-X4); assay: PBMC antiviral assay (RT activity), HIV-1 98IN017; type: cell-based; settings: PHA-P-activated PBMCs, 125 TCID50, day 7, RT activity
Description: as §2

[5] = system: PBMCs; assay: Cytotoxicity in PBMCs; type: cell-based, human; settings: PBMCs
[6] = system: HIV-1 92UG029 (A-X4); assay: PBMC antiviral assay (RT activity), HIV-1 92UG029; type: cell-based; settings: PHA-P-activated PBMCs, 125 TCID50, day 7, RT activity
Description: as §2

[7] = system: HIV-1 Ba-L (B-R5); assay: PBMC antiviral assay (RT activity), HIV-1 Ba-L; type: cell-based; settings: PHA-P-activated PBMCs, 125 TCID50, day 7, RT activity
Description: as §2

[8] = system: HIV-1 NL4-3; assay: MAGI assay, HIV-1 NL4-3; type: cell-based; settings: MAGI cells, 48 h, mean of triplicate ± SD
Description: as §1

[9] = system: HIV-1 LAI; assay: MAGI assay, HIV-1 LAI; type: cell-based; settings: MAGI cells, 48 h, mean of triplicate ± SD
Description: as §1

[10] = system: HIV-1 LAI (B-X4); assay: PBMC antiviral assay (RT activity), HIV-1 LAI; type: cell-based; settings: PHA-P-activated PBMCs, 125 TCID50, day 7, RT activity
Description: as §2

Structure (SMILES): Cc1cn([C@H]2C[C@H](N=[N+]=[N-])[C@@H](CO)O2)c(=O)[nH]c1=O [AZT, reference compound]
- CC50 [1]: > 100000 nM
- EC50 [2]: 12 ± 2 nM
- EC50 [3]: 18 ± 10 nM
- EC50 [4]: 6 ± 2 nM
- CC50 [5]: > 1000 nM
- EC50 [6]: 9 ± 4 nM
- EC50 [7]: 15 ± 21 nM
- EC50 [8]: 21 ± 11 nM
- EC50 [9]: 12 ± 8 nM
- EC50 [10]: 12 ± 3 nM

From publication PMC5082894 (PLoS ONE, 2016)
